We go through one compound from ChEMBL document CHEMBL5727827, “PD-1/PD-L1 inhibitors” (2020).

Structures are written as SMILES.

This test addresses Programmed cell death protein 1/Programmed cell death 1 ligand 1 (Homo sapiens, UniProt Q15116+Q9NZQ7). The experiment in a line: Binding of the protein pairs is measured using a bead based Amplified Luminescent Proximity Homogeneous Assay (ALPHA) platform. Binding of each protein pair results in proximity of the donor and acceptor beads which leads to an increase in ALPHA signal. […] Assays are performed in 25 mM Hepes (pH 7.4), 150 mM NaCl, 3.4 mM EDTA, 0.005% Tween 20, and 0.01% BSA. […] After an assay reaction time of 60 minutes at 25° C., binding was measured with addition of 20 μg/mL ALPHA assay acceptor beads (anti-His coated) and 20 µg/mL ALPHA assay donor beads (streptavidin coated). IC50 values were calculated from the fit of the dose-response curves to a four-parameter equation. Format: protein-complex assay.

Sequence of Programmed cell death protein 1/Programmed cell death 1 ligand 1 (Q15116 whole entry): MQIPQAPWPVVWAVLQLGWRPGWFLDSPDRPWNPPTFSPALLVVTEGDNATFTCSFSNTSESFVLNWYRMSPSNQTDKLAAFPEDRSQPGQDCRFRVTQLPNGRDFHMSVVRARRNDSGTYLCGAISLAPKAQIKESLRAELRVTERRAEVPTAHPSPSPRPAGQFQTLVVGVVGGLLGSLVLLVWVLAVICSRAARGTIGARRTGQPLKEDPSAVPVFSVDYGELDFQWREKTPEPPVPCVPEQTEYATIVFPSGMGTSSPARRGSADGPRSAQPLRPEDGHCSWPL
Sequence of Programmed cell death protein 1/Programmed cell death 1 ligand 1 (Q9NZQ7 whole entry): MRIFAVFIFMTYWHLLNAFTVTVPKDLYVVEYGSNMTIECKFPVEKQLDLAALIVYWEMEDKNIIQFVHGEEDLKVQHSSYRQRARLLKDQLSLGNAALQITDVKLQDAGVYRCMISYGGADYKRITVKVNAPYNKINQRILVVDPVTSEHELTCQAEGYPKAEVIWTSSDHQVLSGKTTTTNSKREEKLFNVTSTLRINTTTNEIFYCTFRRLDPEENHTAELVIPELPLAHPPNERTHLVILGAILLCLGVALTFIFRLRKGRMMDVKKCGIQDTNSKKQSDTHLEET

As a reminder, the IC50 is the concentration at which inhibition is half-maximal. Regarding `COc1nc(-c2cccc(-c3cccc(-c4cnc(CN5CC(C(C)(C)O)C5)c(OC)n4)c3Cl)c2Cl)cnc1CN`, the half-maximal inhibitory concentration (IC50) is 0.346 nM.
